One data set has as its system HL-60. The data set is described as follows: Cytotoxicity against human HL60 cells assessed as reduction in cell viability at 10 uM incubated for 72 hrs by Celltiter-Glo assay. Type of data set: cell-based. As to conditions: hl-60, 72 h. (Cellular ATP, detected with luciferase, serves as a proxy for viable cell number.)
Data set [1] relates to HepG2. Kind of data set: Cytotoxicity against human HepG2 cells assessed as reduction in cell viability at 10 uM incubated for 72 hrs by Celltiter-Glo assay. Type of data set: cell-based. The conditions noted are these: hepg2, 72 h.
A short description of data set [2]: Selectivity for antimalarial activity against Plasmodium falciparum over cytotoxicity against human HepG2 cells. It is filed as toxicity, cell-based. The conditions noted are these: read-out: Selectivity Index.
Data set [3] deals with NHDF. Kind of data set: Cytotoxicity against human NHDF cells assessed as reduction in cell viability at 50 uM incubated for 72 hrs by Celltiter-Glo assay. Type of data set: cell-based.
The test system of data set [4] is HepG2. Kind of data set: Cytotoxicity against human HepG2 cells assessed as reduction in cell viability at 50 uM incubated for 72 hrs by Celltiter-Glo assay. The conditions noted are these: hepg2, 72 h. It is filed as cell-based.
Data set [5] can be described thus: Cytotoxicity against human HepG2 cells assessed as cell viability at 100 uM incubated for 72 hrs by Celltiter-Glo assay. Type of data set: cell-based. As to conditions: read-out: Activity.
Another data set concerns HeLa S3. The data set is described as follows: Cytotoxicity against human HeLa S3 cells assessed as reduction in cell viability at 10 uM incubated for 72 hrs by Celltiter-Glo assay. The conditions noted are these: hela s3, 72 h. Type of data set: cell-based.
Data set [6] concerns Plasmodium falciparum. Kind of data set: Antimalarial activity against asexual stage of chloroquine-resistant Plasmodium falciparum W2 infected in human erythrocytes assessed as parasite growth inhibition measured after 96 hrs by [3H]-hypoxanthine incorporation assay. It is filed as functional, organism-based.
A short description of data set [7]: Selectivity for antimalarial activity against Plasmodium falciparum over cytotoxicity against human NHDF cells. It is filed as toxicity, cell-based. As to conditions: read-out: Selectivity Index.
Data set [8] relates to Plasmodium falciparum. Kind of data set: Antimalarial activity against asexual stage of chloroquine-sensitive Plasmodium falciparum D6 infected in human erythrocytes assessed as inhibition of parasite growth measured after 96 hrs by [3H]-hypoxanthine incorporation assay. It is filed as functional, organism-based.
The nature of data set [9]: Cytotoxicity against human NHDF cells assessed as cell viability at 100 uM incubated for 72 hrs by Celltiter-Glo assay. Type of data set: cell-based. As to conditions: read-out: Activity.
The next data set has as its system CCRF-CEM. Kind of data set: Cytotoxicity against human CCRF-CEM cells assessed as reduction in cell viability at 10 uM incubated for 72 hrs by Celltiter-Glo assay. Type of data set: cell-based.
The test system of data set [10] is HepG2. Kind of data set: Cytotoxicity against human HepG2 cells assessed as reduction in cell viability incubated for 72 hrs by Celltiter-Glo assay. Type of data set: cell-based. As to conditions: HepG2, 72 h.
For data set [11], the system named is NHDF. The data set is described as follows: Cytotoxicity against human NHDF cells assessed as reduction in cell viability at 10 uM incubated for 72 hrs by Celltiter-Glo assay. It is filed as cell-based.
For data set [12], the system named is NHDF. Kind of data set: Cytotoxicity against human NHDF cells assessed as reduction in cell viability incubated for 72 hrs by Celltiter-Glo assay. It is filed as cell-based.

The structures appear in SMILES notation.

Usually IC50 stands for the midpoint of a concentration-inhibition curve.

In the case of `CCOC(=O)[C@H](Cc1ccccc1)NP(=O)(CCN1CCC[C@H]1Cn1cnc2c(=O)[nH]cnc21)N[C@@H](Cc1ccccc1)C(=O)OCC`, the Activity entry in the data set on HL-60, in the data set with HepG2 [1], in the data set on NHDF [3], in the data set with HepG2 [4], with HeLa S3 and in the data set on CCRF-CEM was “Non-Toxic” in each case. In addition, in the data set on NHDF [11], the Activity result is “Non-Toxic”. For the same molecule, the selectivity ratio in [2] and in data set [7] was more than 29 each time. For the same molecule, the viability at 72 h, 100 µM in data set [5] stood at 91%; in data set [9] it was 117%. The IC50 was 6.3 µM in the data set on Plasmodium falciparum [6], 4.1 µM in the data set with Plasmodium falciparum [8], more than 250 µM with HepG2 [10] and 184 µM in the data set with NHDF [12].

Regarding `CCOC(=O)[C@H](Cc1ccccc1)NP(=O)(CCN1CCC[C@@H]1Cn1cnc2c(=O)[nH]cnc21)N[C@@H](Cc1ccccc1)C(=O)OCC`, the Activity result in the data set with HL-60, with HepG2 [1], in the data set on NHDF [3], in the data set on HepG2 [4], in the data set on HeLa S3 and in the data set on CCRF-CEM was “Non-Toxic” throughout. Moreover, in the data set with NHDF [11], the Activity entry is recorded as “Non-Toxic”. For the same molecule, the viability at 72 h, 100 µM in [5] worked out at 98%; in data set [9] it was 106%. Moreover, the IC50 with Plasmodium falciparum [6] was 9.1 µM; in the data set with Plasmodium falciparum [8], 7.1 µM.

With `CCOC(=O)[C@H](Cc1ccccc1)NP(=O)(CN1CCCC(Cn2cnc3c(=O)[nH]cnc32)C1)N[C@@H](Cc1ccccc1)C(=O)OCC` (stereo partly specified), the Activity entry with HL-60, with HepG2 [1], in the data set with NHDF [3], in the data set on HepG2 [4], in the data set on HeLa S3 and with CCRF-CEM was “Non-Toxic” each time. Besides, the Activity result in the data set on NHDF [11] is “Non-Toxic”. Further, the viability at 72 h, 100 µM is 105% in data set [5] and 107% in [9]. The figures for the IC50 with Plasmodium falciparum [6] and in the data set with Plasmodium falciparum [8] were 11.7 µM and 7.9 µM, respectively.

Regarding `CCOC(=O)[C@H](Cc1ccccc1)NP(=O)(CN1CCCC(Cn2cnc3c(=O)[nH]c(N)nc32)C1)N[C@@H](Cc1ccccc1)C(=O)OCC` (stereo partly specified), the Activity result with HL-60, with HepG2 [1], in the data set with NHDF [3], with HepG2 [4], in the data set on HeLa S3 and in the data set with CCRF-CEM was “Non-Toxic” throughout. In the data set on NHDF [11], the Activity entry is reported as “Non-Toxic”. The viability at 72 h, 100 µM in data set [5] and in data set [9] was 103% throughout. Further, the results for the IC50 in the data set on Plasmodium falciparum [6] and with Plasmodium falciparum [8] were 3.9 µM and 11.7 µM, respectively.

Consider `CCOC(=O)[C@H](Cc1ccccc1)NP(=O)(CCN1CCN(CP(=O)(N[C@@H](Cc2ccccc2)C(=O)OCC)N[C@@H](Cc2ccccc2)C(=O)OCC)CC1Cn1cnc2c(=O)[nH]cnc21)N[C@@H](Cc1ccccc1)C(=O)OCC` (stereo partly specified), for which the Activity entry in the data set on HL-60, with HepG2 [1], with NHDF [3], with HepG2 [4], in the data set on HeLa S3 and in the data set on CCRF-CEM was “Non-Toxic” in each case. Further, the Activity result with NHDF [11] is recorded as “Non-Toxic”. Also, the viability at 72 h, 100 µM in [5] was 82%; in data set [9], 3%. The 50% inhibitory concentration (IC50) in the data set with Plasmodium falciparum [6] was determined as 2.7 µM; in the data set with Plasmodium falciparum [8], 5.1 µM.

Regarding `CCOC(=O)[C@H](Cc1ccccc1)NP(=O)(CCN1CCN(CP(=O)(N[C@@H](Cc2ccccc2)C(=O)OCC)N[C@@H](Cc2ccccc2)C(=O)OCC)CC1Cn1cnc2c(=O)[nH]c(N)nc21)N[C@@H](Cc1ccccc1)C(=O)OCC` (stereo partly specified), the Activity result in the data set on HL-60, in the data set with HepG2 [1], in the data set on NHDF [3], in the data set with HepG2 [4], in the data set with HeLa S3 and with CCRF-CEM was “Non-Toxic” in each case. The Activity result with NHDF [11] is reported as “Non-Toxic”. For the same molecule, the viability at 72 h, 100 µM in data set [5] is 104%; in [9], 14%. Also, the figures for the IC50 in the data set with Plasmodium falciparum [6] and in the data set on Plasmodium falciparum [8] were 32.4 µM and 55.4 µM, respectively.

Regarding `CCOC(=O)[C@H](Cc1ccccc1)NP(=O)(CCN1CCC[C@H]1Cn1cnc2c(=O)[nH]c(N)nc21)N[C@@H](Cc1ccccc1)C(=O)OCC`, the Activity entry in the data set on HL-60, in the data set with HepG2 [1], in the data set on NHDF [3], with HepG2 [4], in the data set with HeLa S3 and in the data set with CCRF-CEM was “Non-Toxic” throughout. For the same molecule, the Activity entry in the data set on NHDF [11] is “Non-Toxic”. In addition, the selectivity ratio in [2] and in [7] was more than 35 each time. The viability at 72 h, 100 µM in data set [5] came out at 98%; in data set [9], 97%. In addition, the half-inhibitory concentration (IC50) is 2.5 µM in the data set with Plasmodium falciparum [6], 7.2 µM in the data set with Plasmodium falciparum [8], more than 250 µM in the data set on HepG2 [10] and 306 µM in the data set with NHDF [12].

With `CCOC(=O)[C@H](Cc1ccccc1)NP(=O)(CCN1CCC[C@@H]1Cn1cnc2c(=O)[nH]c(N)nc21)N[C@@H](Cc1ccccc1)C(=O)OCC`, the Activity entry in the data set on HL-60, in the data set with HepG2 [1], in the data set with NHDF [3], in the data set on HepG2 [4], with HeLa S3 and in the data set with CCRF-CEM was “Non-Toxic” in each case. Besides, in the data set on NHDF [11], the Activity entry is listed as “Non-Toxic”. The values for the viability at 72 h, 100 µM in [5] and in [9] were 98% and 103%, respectively. The IC50 in the data set with Plasmodium falciparum [6] came out at 8 µM; in the data set with Plasmodium falciparum [8], 12.1 µM.
